Structures can show the parent of a compound that is named as a salt.
Key:
[1] = test system: IL-17 production by CD4 T cells; experiment: Human Th17 assay (IL-17 production by CD4 T cells under Th17 differentiation conditions); assay type: cell-based; settings: IL-17 in supernatant after 3 days
Procedure: The human Th17 assay tests the effect of RORγt modulatory compounds on IL-17 production by CD4 T cells under conditions which favor Th17 differentiation. Total CD4^+ T cells were isolated from the peripheral blood mononuclear cells (PBMC) of healthy donors using a CD4^+ T cell isolation kit II, following the manufacturer's instructions (Miltenyi Biotec). […] 50 μL of compound at titrated concentrations in DMSO were added into each well at final DMSO concentration at 0.2%. Cells were incubated for 1 hour, then 50 μL of Th17 cell differentiation medium was added to each well. The final concentrations of antibodies and cytokines (R&D Systems) in differentiation medium were: 3×10^6/mL anti-CD3/CD28 beads (prepared using human T cell activation/expansion kit, Miltenyi Biotec), 10 μg/mL anti-IL4, 10 μg/mL anti-IFNγ, 10 ng/mL IL113, 10 ng/mL IL23, 50 ng/mL IL6, 3 ng/mL TGFβ and 20 U/mL IL2. Cells were cultured at 37° C. and 5% CO2 for 3 days. Supernatants were collected and the accumulated IL-17 in culture was measured by using MULTI-SPOT® Cytokine Plate following manufacture's instruction (Meso Scale Discovery). The plate was read using Sector Imager 6000, and IL-17 concentration was extrapolated from the standard curve. The IC50s were determined by GraphPad.

[2] = biological target: T1, human RORγt ligand binding domain (RORγt LBD) (Homo sapiens, UniProt P51449); experiment: RORγt ThermoFluor assay (thermal shift, ligand binding affinity); settings: estimated from concentration response of thermal shift
T1 construct: His-tag (N); TurboTEV protease cleavage site (ENLYFQG) (N); made in house; host or cells: E. coli (pHIS1, modified pET vector)
T1 sequence (P51449 with tags, fused parts or gaps): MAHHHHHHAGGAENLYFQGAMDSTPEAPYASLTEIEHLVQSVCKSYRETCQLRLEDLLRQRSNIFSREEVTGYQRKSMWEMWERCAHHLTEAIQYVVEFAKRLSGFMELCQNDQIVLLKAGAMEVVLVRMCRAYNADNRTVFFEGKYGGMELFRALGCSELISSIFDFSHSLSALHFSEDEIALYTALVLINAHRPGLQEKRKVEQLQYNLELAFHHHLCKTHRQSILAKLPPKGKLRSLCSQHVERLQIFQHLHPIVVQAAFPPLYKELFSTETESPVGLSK
Outline: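 Thermal shift of 0.065 mg/mL RORγt with 60 μM 1,8-ANS in 100 mM Hepes pH 7.0, 10 mM NaCl, 2.5 mM GSH, 0.002% Tween-20. Compounds in 1:2 series from 10 mM DMSO stock. Dye fluorescence (500 nm emission) tracked versus temperature; ΔTm used to derive KD.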

human RORγt LBD = biological target: T2, human RORγt LBD (Homo sapiens, UniProt P51449); experiment: RORγt reporter assay (GAL4-RORγt LBD luciferase in HEK293T cells); assay type: cell-based; settings: for IC50: 24 hours compound treatment; for inhibition at 6 µM: HEK-293T, read-out: RORγt reporter Assay, % inhibition @ 6 μM, HEK293T cells, 6 μM compound
T2 construct: expressed in transfected cells
T2 sequence (P51449 258-518): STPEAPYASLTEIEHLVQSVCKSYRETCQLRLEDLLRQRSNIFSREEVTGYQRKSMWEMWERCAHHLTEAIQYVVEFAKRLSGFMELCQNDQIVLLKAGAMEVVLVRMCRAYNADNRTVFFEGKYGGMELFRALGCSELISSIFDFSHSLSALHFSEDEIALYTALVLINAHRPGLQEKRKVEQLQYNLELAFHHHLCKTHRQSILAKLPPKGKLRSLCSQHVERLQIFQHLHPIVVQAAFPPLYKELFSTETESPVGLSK
Outline: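 HEK293T cells transiently co-transfected with pBIND (GAL4 DBD fused to wild-type human RORγt LBD, plus SV40-driven renilla luciferase) and pGL4.31 GAL4-responsive firefly luciferase reporter. Plated in phenol-red-free DMEM with 5% lipid-reduced FCS and treated with compound for 24 h. Firefly/renilla luminescence ratio plotted against compound concentration.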

Compound	Kd [2] [µM]	IC50 (human RORγt LBD; HEK293T cells) [µM]	inhibition at 6 µM (human RORγt LBD) [%]	RORγt reporter Assay, % inhibition @ 6 μM (human RORγt LBD; HEK293T cells, 6 μM compound, 6 µM) [%]	IC50 ([1]; Homo sapiens, CD4+ T, 72 h) [µM]	IC50 [1] [µM]
Cn1cncc1C(O)(c1cccnc1)c1ccc2nc(Cl)c(-c3ccccc3)c(Cl)c2c1 (stereo not drawn) [Example 49, (2,4-Dichloro-3-phenylquinolin-6-yl)(1-methyl-1H-imidazol-5-yl)(pyridin-3-yl)methanol]	–	–	–	–	0.41	–
Cn1cncc1C(O)(c1ccc(Cl)cc1)c1ccc2nc(Cl)c(-c3ccccc3)c(Cl)c2c1 (single isomer, unassigned) [Example 119c, (4-Chlorophenyl)(2,4-dichloro-3-phenylquinolin-6-yl)(1-methyl-1H-imidazol-5-yl)methanol]	–	–	–	–	0.7	–
OC(c1ccccc1)(c1cccnc1)c1ccc2nc(Cl)c(-c3ccccc3)c(Cl)c2c1 (stereo not drawn) [Example 2, (2,4-Dichloro-3-phenylquinolin-6-yl)(phenyl)(pyridin-3-yl)methanol]	–	–	–	–	0.62	~0.7
Cn1cncc1C(O)(c1ccncc1)c1ccc2nc(Cl)c(-c3ccccc3)c(Cl)c2c1 (stereo not drawn) [Example 16, (2,4-Dichloro-3-phenylquinolin-6-yl)(1-methyl-1H-imidazol-5-yl)(pyridin-4-yl)methanol]	–	–	–	–	0.13	–
Cn1cncc1C(O)(c1ccnc(F)c1)c1ccc2nc(Cl)c(-c3ccccc3)c(Cl)c2c1 (stereo not drawn) [Example 86, (2,4-Dichloro-3-phenylquinolin-6-yl)(2-fluoropyridin-4-yl)(1-methyl-1H-imidazol-5-yl)methanol•TFA]	–	–	–	–	0.037	–
COc1nc2ccc(C(O)(c3ccc(Cl)cc3)c3cncn3C)cc2cc1-c1ccccc1 (stereo not drawn) [Example 9]	7.1	6.1	70	–	–	–
Cc1nn(C)c(C)c1C(O)(c1ccccc1)c1ccc2nc(Cl)c(-c3ccccc3Cl)c(Cl)c2c1 (stereo not drawn) [Example 7, (2,4-Dichloro-3-(2-chlorophenyl)quinolin-6-yl)(phenyl)(1,3,5-trimethyl-1H-pyrazol-4-yl)methanol]	5.3	1.2	83	–	–	–
CN(C)c1c(-c2ccccc2)c(Cl)nc2ccc(C(O)(c3ccc(Cl)cc3)c3cccnc3)cc12 (stereo not drawn) [Example 33, [2-Chloro-4-(dimethylamino)-3-phenylquinolin-6-yl](4-chlorophenyl)pyridin-3-ylmethanol•TFA]	3.3	2	78	–	–	–
CN(C)c1c(-c2ccccc2)c(Cl)nc2ccc(C(O)(c3cccnc3)c3ccccc3Cl)cc12 (stereo not drawn) [Example 45, [2-Chloro-4-(dimethylamino)-3-phenylquinolin-6-yl](2-chlorophenyl)pyridin-3-ylmethanol•TFA]	2.9	1.6	75	–	–	–
COc1nc2c(C)cc(C(O)(c3ccc(F)cc3)c3cncn3C)cc2c(Cl)c1-c1cccc(F)c1 (single isomer, unassigned) [Example 178b, (4-Chloro-3-(3-fluorophenyl)-2-methoxy-8-methylquinolin-6-yl)(4-fluorophenyl)(1-methyl-1H-imidazol-5-yl)methanol]	21	0.61	–	72	–	–
Cc1cc(C(O)(c2ccc(C(F)(F)F)nc2)c2cncn2C)cc2c(C#N)c(-c3cccc(F)c3)c(C#N)nc12 (single isomer, unassigned) [Example 176b, 3-(3-Fluorophenyl)-6-(hydroxy(1-methyl-1H-imidazol-5-yl)(6-(trifluoromethyl)pyridin-3-yl)methyl)-8-methylquinoline-2,4-dicarbonitrile]	3.4	1.5	94	–	–	–

The remaining compounds from weak to strong by Kd [2], led by results:

Kd [2] [µM]	IC50 (human RORγt LBD; HEK293T cells) [µM]	inhibition at 6 µM (human RORγt LBD) [%]	RORγt reporter Assay, % inhibition @ 6 μM (human RORγt LBD; HEK293T cells, 6 μM compound, 6 µM) [%]	Compound	IC50 ([1]; Homo sapiens, CD4+ T, 72 h) [µM]	IC50 [1] [µM]
2.5	0.64	94	–	CCN(CC)c1c(-c2ccccc2)c(Cl)nc2ccc(C(O)(c3cccnc3)c3cccc(Cl)c3)cc12 (stereo not drawn) [Example 101, [2-Chloro-4-(diethylamino)-3-phenylquinolin-6-yl](3-chlorophenyl)pyridin-3-ylmethanol•TFA]	–	–
2.5	1.6	86	–	CN(C)c1c(-c2ccccc2)c(Cl)nc2ccc(C(O)(c3ccc(F)cc3)c3cccnc3)cc12 (stereo not drawn) [Example 39, [2-Chloro-4-(dimethylamino)-3-phenylquinolin-6-yl](4-fluorophenyl)pyridin-3-ylmethanol•TFA]	–	–
2.2	~6	70	–	Cn1ccnc1C(O)(c1ccc2nc(Cl)c(-c3ccccc3)c(Cl)c2c1)c1cnccn1 (stereo not drawn) [Example 123, (2,4-Dichloro-3-phenylquinolin-6-yl)(1-methyl-1H-imidazol-2-yl)(pyrazin-2-yl)methanol]	–	–
1.4	2.2	85	–	CCN(CC)c1nc2ccc(C(O)(c3cccnc3)c3cccc(Cl)c3)cc2c(C)c1-c1ccccc1 (stereo not drawn) [Example 103, (3-Chlorophenyl)[2-(diethylamino)-4-methyl-3-phenylquinolin-6-yl]pyridin-3-ylmethanol•TFA]	–	–
0.95	~2	61	–	Cn1cncc1C(O)(c1ccncc1)c1ccc2ncc(-c3ccccc3)c(Cl)c2c1 (stereo not drawn) [Example 53, (4-Chloro-3-phenylquinolin-6-yl)(1-methyl-1H-imidazol-5-yl)pyridin-4-ylmethanol•TFA]	–	–
0.65	1	66	–	Cn1ccnc1C(O)(c1cncnc1)c1ccc2nc(Cl)c(-c3ccccc3)c(Cl)c2c1 (stereo not drawn) [Example 125, (2,4-Dichloro-3-phenylquinolin-6-yl)(1-methyl-1H-imidazol-2-yl)(pyrimidin-5-yl)methanol]	–	–
0.56	~4	71	–	CCOc1nc2ccc(C(O)(c3ccncc3)c3cncn3C)cc2c(OCC)c1-c1ccccc1 (stereo not drawn) [Example 82, (2,4-Diethoxy-3-phenylquinolin-6-yl)(1-methyl-1H-imidazol-5-yl)pyridin-4-ylmethanol•TFA]	–	–
0.26	0.52	102	–	Cn1nncc1C(O)(c1ccc(Cl)cc1)c1ccc2nc(Cl)c(-c3ccccc3)c(Cl)c2c1 (stereo not drawn) [Example 144, (4-Chlorophenyl)(2,4-dichloro-3-phenylquinolin-6-yl)(1-methyl-1H-1,2,3-triazol-5-yl)methanol]	–	–
0.23	~0.2	99	–	OC(c1cccnc1)(c1ccc2nc(Cl)c(-c3ccccc3)c(Cl)c2c1)c1ccccc1Cl (stereo not drawn) [Example 28, (2-Chlorophenyl)(2,4-dichloro-3-phenylquinolin-6-yl)pyridin-3-ylmethanol•TFA]	–	–
0.22	0.2	97	–	CC(C)(C)OC(=O)N1CCC(C(O)(c2cccnc2)c2ccc3nc(Cl)c(-c4ccccc4)c(Cl)c3c2)CC1 (stereo not drawn) [Example 91, tert-Butyl 4-[(2,4-dichloro-3-phenylquinolin-6-yl)(hydroxy)pyridin-3-ylmethyl]piperidine-1-carboxylate]	–	–
0.074	0.2	100	–	Cn1cncc1C(O)(c1ccc2nc(C(F)(F)F)c(-c3ccccc3)c(C(F)(F)F)c2c1)c1ccccn1 (racemic) [Example 185a, (1-Methyl-1H-imidazol-5-yl)(3-phenyl-2,4-bis(trifluoromethyl)quinolin-6-yl)(pyridin-2-yl)methanol]	–	–
0.0046	0.14	96	–	Cn1cncc1C(O)(c1ccc(C(F)(F)F)nc1)c1ccc2nc(C(F)(F)F)c(-c3ccccc3)c(Cl)c2c1 (stereo not drawn) [Example 172, (4-Chloro-3-phenyl-2-(trifluoromethyl)quinolin-6-yl)(1-methyl-1H-imidazol-5-yl)(6-(trifluoromethyl)pyridin-3-yl)methanol•TFA]	–	–
